# In patent publication US9707267B2, “Beta-turn peptidomimetic cyclic compounds for treating dry eye” (Mimetogen Pharmaceuticals, Inc., priority 2008, dated 2017):
# Marks after values point to notes of the source that are not given here.
# Assays:
# [1] = test system: Scopolamine Induced Rat Dry Eye Model; assay: Scopolamine induced rat dry eye model, tear break-up time (Example 5); format: in vivo; conditions: for Tear Break-Up Time: ± SD
# Procedure: Dry eye was induced using scopolamine hydrobromide (Sigma-Aldrich, St. Louis, Mo.), which was continuously and systemically delivered to the animals via an osmotic pump (2ML4 Alzet®; CedarLane, Burlington, Ontario) filled with scopolamine and implanted subcutaneously in the mid dorsal area between the scapulae. Scopolamine was delivered for a twenty-eight day period at 12.5 mg/day, which translated to 30.0±1.5 mg/kg via osmotic pump.
# Treatments for G2-G6 continued daily for seventeen days (up to an including day twenty-one). Thereafter, treatments were terminated but the study continued for another week. During treatment, each animal was anesthetized in an isoflurane chamber. Once asleep, each animal received a 5 μL topical instillation of test article into the lower conjunctival sac of both eyes using a calibrated micropipette. If a clinical endpoint was also being tested, the test article was topically instilled at the end of the testing.
# Tear break-up times were tested on day 13 (after 8 daily treatments), day 21 (after 16 daily treatments), and day 28 (after treatment was stopped for 7 days). TBUT was evaluated by instillation of 10 μL sodium fluorescein solution (0.2% in sterile saline) in the upper conjunctival sac of the anaesthetized animal. The lids were blinked manually to distribute the fluorescein with the tear film. Under the cobalt blue light of a portable slit lamp ophthalmoscope (Reichert Ophthalmic Instruments, Depew, N.Y.), the eye was held open and the time until one or more black streaks appeared in the precorneal tear film was recorded. For each eye, a minimum of triplicate readings were made with fresh fluorescein solution.
# p42/44 MAPK = assay: Activation of p42/44 MAPK in goblet cells, Western blot (Example 2); format: cell-based, rat; conditions: 5 minutes, phospho-MAPK relative to actin
# Procedure: The activation of p42/44 MAPK was examined using Western blot techniques. Goblet cells were serum starved in serum-free RPMI for 4-6 hrs prior to the addition of PMA (100 nM), NGF (1 or 10 nM), or MIM-D3 (10 or 50 μM) for 5 minutes at 37° C. After, cells were rinsed once in cold PBS, scraped in 100 μL of 1×SDS-PAGE sample buffer [62.5 mM Tris-HCl pH 6.8, 10% glycerol, 2% SDS, 5% β-mercaptoethanol, 0.02 mg/mL bromophenol blue] and sonicated for 20 minutes. The homogenates were centrifuged at 14,900 g for 15 min at 4° C. Proteins in a […] of the supernatant were separated by SDS-PAGE (8% acrylamide gels) and transferred to nitrocellulose membranes. The membranes were blocked for 2 hours in 5% non-fat dried milk in buffer containing 20 mM Tris-HCl, pH 8.0, 150 mM NaCl, and 0.01% Tween-20 (TBST). The blots were then probed with an antibody directed against the phosphorylated form of MAPK1/2 (Calbiochem, San Diego, Calif.) at 0.1 μg/mL in TBST containing 5% BSA overnight at 4° C., followed by a 1 hour incubation in HRP-conjugated secondary anti-mouse antibody (Sigma, St. Louis, Mo.) at room temperature in TBST containing 5% non-fat dried milk. Immunoreactive bands were visualized using the enhanced chemiluminescence method (Perkin Elmer, Waltham, Mass.). The blots were stripped at 55° C. for 30 minutes in stripping buffer [62.5 mM Tris-HCl pH 6.8, 2% SDS, 0.1M β-mercaptoethanol] followed by re-probing with an antibody directed against actin (1:5000 dilution, Sigma, St. Louis, Mo.) in TBST containing 5% non-fat dried milk and incubation in HRP-conjugated secondary anti-rabbit antibody. The immunoreactive bands were digitally scanned on an EPSON scanner and analyzed using NIH ImageJ v1.38x. The amount of phosphorylated MAPK in each sample was standardized to the amount of total actin protein in the sample.
# To determine if compound D3 and NGF induced glycoconjugates secretion via activation of the MAPK pathway, cultured goblet cells from 3 independent rats were stimulated by 10 and 50 μM compound D3, 1 and 10 nM NGF or PMA (100 nM, the positive control) for 5 minutes and MAPK activity was measured by western blot analysis. A representative western blot from 3 independent rat goblet cell cultures is shown in FIG. 9, and the quantification is shown in FIG. 10. There was a statistically significant effect of treatment on MAPK activation (P<0.0001). Compound D3 increased MAPK activity above basal by 2.5±0.3 fold at 10 μM and 2.2±0.5 fold at 50 μM and NGF increased MAPK activity by 2.8±0.5 at 1 nM (P<0.05) and 1.7±0.2 at 10 nM.
Compound,"Tear Break-Up Time ([1]; 0.4% topical 1× daily Days 5-21, Day 13)","Tear Break-Up Time ([1]; 0.4% topical 1× daily Days 5-21, Day 21) [s]","Tear Break-Up Time ([1]; 0.4% topical 1× daily Days 5-21, Day 28 (7 days after treatment stopped)) [s]",changes in TBUT at Day 28 as compared to Day 13 (in words) ([1]; 1% dose vs untreated and saline control groups),"Tear Break-Up Time ([1]; 1.0% topical 1× daily Days 5-21, Day 21) [s]","Tear Break-Up Time ([1]; 1.0% topical 1× daily Days 5-21, Day 28 (7 days after treatment stopped)) [s]","Tear Break-Up Time ([1]; 2.5% topical 1× daily Days 5-21, Day 13) [s]","Tear Break-Up Time ([1]; 2.5% topical 1× daily Days 5-21, Day 21) [s]","Tear Break-Up Time ([1]; 2.5% topical 1× daily Days 5-21, Day 28 (7 days after treatment stopped)) [s]",MAPK activity above basal (p42/44 MAPK; 10 μM) [fold],MAPK activity above basal (p42/44 MAPK; 50 μM) [fold],"Tear Break-Up Time ([1]; 0.00053% topical 1× daily Days 5-21, Day 13) [s]","Tear Break-Up Time ([1]; 0.00053% topical 1× daily Days 5-21, Day 21) [s]","Tear Break-Up Time ([1]; 0.00053% topical 1× daily Days 5-21, Day 28 (7 days after treatment stopped)) [s]",MAPK activity above basal (p42/44 MAPK; 1 nM) [fold],MAPK activity above basal (p42/44 MAPK; 10 nM) [fold]
NCCCC[C@@H]1NC(=O)[C@H](CCC(=O)O)NC(=O)c2cc([N+](=O)[O-])ccc2OCCC(C(=O)NCC(=O)O)NC1=O (stereo partly shown) [Compound D3],4.5 ± 1.7^b seconds,4.4 ± 1.7,4.3 ± 0.8,statistically significantly improved TBUT,5.1 ± 1.9,6.4 ± 1.2,7.0 ± 2.3,5.8 ± 2.1,5.0 ± 1.3,2.5±0.3,2.2±0.5,,,,,
"NGF: nerve growth factor (recombinant human), positive control",,,,,,,,,,,,5.2 ± 1.6,4.7 ± 0.8,4.2 ± 0.8,2.8±0.5,1.7±0.2
